The values below come from US20210179543A1, “CALPAIN-2 SELECTIVE INHIBITOR COMPOUNDS FOR TREATMENT OF GLAUCOMA” (Western University of Health Sciences, priority 2018, published 2021).

Series [1] addresses T1, human calpain-1 (Homo sapiens, UniProt P07384).
T1 sequence (P07384 1-714): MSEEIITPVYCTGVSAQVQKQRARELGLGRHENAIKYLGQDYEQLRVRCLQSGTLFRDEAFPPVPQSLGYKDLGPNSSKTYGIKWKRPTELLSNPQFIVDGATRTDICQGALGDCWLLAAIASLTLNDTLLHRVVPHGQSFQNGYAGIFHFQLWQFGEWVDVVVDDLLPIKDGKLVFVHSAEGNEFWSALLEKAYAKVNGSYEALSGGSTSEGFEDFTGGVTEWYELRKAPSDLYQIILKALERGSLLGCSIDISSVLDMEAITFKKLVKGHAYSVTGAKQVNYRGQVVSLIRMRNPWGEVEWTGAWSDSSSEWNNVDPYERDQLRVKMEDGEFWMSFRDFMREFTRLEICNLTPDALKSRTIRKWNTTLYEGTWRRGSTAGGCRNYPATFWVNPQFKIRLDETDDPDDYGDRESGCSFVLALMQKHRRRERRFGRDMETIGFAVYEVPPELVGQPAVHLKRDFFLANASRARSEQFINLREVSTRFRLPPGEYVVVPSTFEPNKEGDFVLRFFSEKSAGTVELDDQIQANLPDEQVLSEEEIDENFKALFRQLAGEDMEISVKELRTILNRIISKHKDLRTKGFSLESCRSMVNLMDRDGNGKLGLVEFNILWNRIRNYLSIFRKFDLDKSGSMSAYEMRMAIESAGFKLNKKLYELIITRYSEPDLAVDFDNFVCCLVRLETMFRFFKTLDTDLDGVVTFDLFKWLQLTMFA
T1 sequence (P04632 1-268 partner): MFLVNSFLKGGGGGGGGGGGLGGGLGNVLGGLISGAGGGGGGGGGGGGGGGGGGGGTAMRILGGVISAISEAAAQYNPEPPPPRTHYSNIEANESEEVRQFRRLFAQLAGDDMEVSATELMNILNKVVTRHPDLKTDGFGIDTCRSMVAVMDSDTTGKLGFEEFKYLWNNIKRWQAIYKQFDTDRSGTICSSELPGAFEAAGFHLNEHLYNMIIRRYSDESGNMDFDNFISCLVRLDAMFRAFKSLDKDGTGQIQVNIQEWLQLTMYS
The series can be described thus: in vitro calpain assay with succinic-Leu-Tyr-AMC, calpain-1. The following applies: human calpain-1, succinic-Leu-Tyr-AMC. In kind it is biochemical. On the procedure:
(§1) NA115A (Compound 15 (S above) was introduced at various concentrations into an in vitro mix comprising succinic-Leu-Tyr-AMC and human calpain-1 or calpain-2 (Sasaki et al, 1984), and the kinetics of the […] of fluorescence were determined for each of the calpains. The Kis of NA115, NA115A and NA115B for calpain-1 and calpain-2 are shown in Tables 1-2 below. The efficacy of NA115 against calpain-1 or calpain-2 appears to be only in NA115A.

Series [2] in a line: epimerization in pig vitreous fluid, aliquots tested in the calpain-2 assay. It counts as in vitro ADME. The note with it: 35° C.; for change of inhibitory effect in the calpain-2 assay after incubation: 2 μM, various periods of time. On the procedure:
NA115A or NA115B (2 μM) was incubated with pig vitreous fluid for various periods of time at 35° C. Aliquots were then tested in the calpain-2 assay. […] (FIGS. 9A-9D).

In series [3] the target is T2, calpain-2 (Homo sapiens, UniProt P17655).
T2 sequence (P17655 1-700): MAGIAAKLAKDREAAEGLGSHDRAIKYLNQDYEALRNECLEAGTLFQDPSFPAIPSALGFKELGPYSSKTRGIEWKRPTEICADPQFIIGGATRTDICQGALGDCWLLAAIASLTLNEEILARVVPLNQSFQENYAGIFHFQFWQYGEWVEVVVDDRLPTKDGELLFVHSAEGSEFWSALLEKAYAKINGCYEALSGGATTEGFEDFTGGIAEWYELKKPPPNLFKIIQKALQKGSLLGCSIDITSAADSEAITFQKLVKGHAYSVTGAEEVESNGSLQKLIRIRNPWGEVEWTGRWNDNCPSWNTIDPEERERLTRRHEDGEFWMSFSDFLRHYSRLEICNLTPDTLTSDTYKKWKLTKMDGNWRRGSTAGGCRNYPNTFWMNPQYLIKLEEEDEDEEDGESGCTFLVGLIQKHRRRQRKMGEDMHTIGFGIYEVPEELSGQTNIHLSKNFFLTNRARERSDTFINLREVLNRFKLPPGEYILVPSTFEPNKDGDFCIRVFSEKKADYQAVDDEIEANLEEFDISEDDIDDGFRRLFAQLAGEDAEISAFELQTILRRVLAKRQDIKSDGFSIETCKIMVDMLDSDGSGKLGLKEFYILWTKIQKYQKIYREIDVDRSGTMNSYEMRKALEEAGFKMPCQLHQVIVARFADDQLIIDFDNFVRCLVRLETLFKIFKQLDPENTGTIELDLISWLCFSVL
T2 sequence (P04632 1-268 partner): T1 sequence (P04632 1-268 partner)
The series can be described thus: in vitro calpain assay with succinic-Leu-Tyr-AMC, calpain-2. It counts as biochemical. The following applies: for IC50 / Ki: human calpain-2, succinic-Leu-Tyr-AMC. On the procedure: as §1

Series [4] concerns the target T2, calpain-2. The series can be described thus: IC50 on calpain-1 and calpain-2 activities (Wang et al., 2014), selectivity. In kind it is biochemical. On the procedure:
These compounds can be calpain-2 selective inhibitors. […] IC50 values for NA115 on the activity of calpain-1 and calpain-2 activities were measured (Wang et al., 2014). […] The selectivity of NA117 was 24.1. [0016] Pharmaceutical compositions of the invention comprise NA115 and NA117, and a pharmaceutically acceptable excipient. Excipients used in pharmaceutical composition of the invention are safe and provide the appropriate delivery for the desired route of administration, of an effective amount of NA115 and NA117.

The nature of series [5]: plasma stability in mouse plasma. In kind it is in vitro ADME. The following applies: mouse plasma; solubilized in 2-Hydroxypropyl)-beta-cyclodextrin or captisol, depending on the solvent. On the procedure:
Stability of NA115 was evaluated with NA115 solubilized in 2-Hydroxypropyl)-beta-cyclodextrin or in captisol.
Moreover, 1 mM of the NA115 in beta-cyclodextrin was diluted 5 times in freshly prepared mouse plasma (200 μM NA115 in plasma). The mixture was incubated at 37 degree. At indicated time point, 1 μl of the mixture was added to 99 ul of calpain assay solution containing 5 mM Ca2+, 200 μM Suc-Leu-Tyr-AMC substrate and 100 nM calpain-2. Hydrolysis rate was monitored in the plate reader. As a control, 1 μl of plasma alone was subjected to calpain assay and its hydrolysis rate was set as 100% of calpain activity.

Series [6] concerns retinal ganglion cells. As to the kind of experiment: acute glaucoma model (increased IOP), beta-III tubulin staining of retinal wholemounts. The note with it: mouse, 200 μM, 1 μl intraocular 2 h after IOP elevation, 3 days after increased IOP. In kind it is in vivo. The procedure: Immunohistochemistry is shown with staining in the peripheral area of retinal wholemounts, with anti-beta-III tubulin, a marker for retinal ganglion cells, 3 days after increased IOP in a sham animal, an animal subjected to increased IOP and injected with vehicle (10% DMSO in PBS, 1 μl; IOP)) and an animal subjected to increased IOP and injected with NA115 (200 μM). Scale bar=100 microns.
Vehicle (10% DMSO in PBS, 1 μl) or NA115 (200 μM, 1 μl) was injected 2 h after IOP elevation. Retinal whole mounts were prepared 3 days after the surgery. One-way ANOVA followed by Bonferroni test. ****p<0.0001, **p<0.01. N=8 for Sham. N=7 for IOP, IOP+NA115.
The model of acute glaucoma previously reported in Wang et al. (2016) was used. In this model, intraocular pressure (IOP) was increased to 110 mm Hg for 1 h with the mouse under anesthesia. Two h later mice received an intraocular injection of various concentrations of a calpain-2 inhibitor and were returned to their home cages. They were sacrificed 4 h later for determination of calpain activity using immunohistochemistry to stain for the spectrin breakdown product (SBDP) selectively generated by calpain-mediated truncation of spectrin. Previous studies (Wang et al., 2016) have shown that, at this time-point calpain activity represents calpain-2 activity. […]

In series [7] the test system is calpain-2 activation in the retina. As to the kind of experiment: acute glaucoma model (increased IOP), SBDP immunohistochemistry in retina. It counts as in vivo. The following applies: mouse. On the procedure: Immunohistochemistry for SBDP (green) in sections from a sham animal (surgery only), animal subjected to increased IOP and injected intraocularly with vehicle (10% DMSO in PBS, 1 μl; IOP)), increased IOP and injected with NA115 (40 μM, 100 μM, and 200 μM). Blue staining represents cell nuclear staining with the retinal ganglion cells on the upper layer.
For each image, mean fluorescence intensity (MFI) is analyzed in the inner plexiform layer (layer between the 2 cell body layers in FIG. 1). Three frozen sections (20 μm-thick), cut through the optic disc of each eye, were collected and stained with SBDP antibody. In each section, three images were captured under 60× objective of a confocal microscope (LSM-880). For each image, MFI (mean fluorescence intensities) in the IPL layer were measured in ImageJ and averaged. N=2 animals/group.
Same experimental procedure as in FIGS. 1-4. NA117 was injectedintraocularly at a concentration of 200 μM). One-way ANOVA followed by Bonferroni test. *p<0.05, **p<0.01. Results are means±SEM of 2 animals. Scale bar=20 microns.
The model of acute glaucoma previously reported in Wang et al. (2016) was used. In this model, intraocular pressure (IOP) was increased to 110 mm Hg for 1 h with the mouse under anesthesia. Two h later mice received an intraocular injection of various concentrations of a calpain-2 inhibitor and were returned to their home cages. […]

As usually defined, the IC50 is the concentration that inhibits the measured activity by half. A lower IC50 goes with greater potency in that assay. As usually defined, the Ki is a dissociation constant, usually derived from enzyme kinetics or from competition with a known ligand. A lower Ki goes with higher affinity. As for `CC[C@H](NC(=O)[C@H](CC(C)C)NC(=O)CCc1ccccc1)C(=O)C(=O)NCc1cc(F)cc(OC)c1` [NA115A], in series [1], the IC50 was 331 nM and the affinity, expressed as Ki, was 189 nM. For the same molecule, in series [2], the “change of inhibitory effect in the calpain-2 assay after incubation” value was “rapid decrease in the inhibitory effect” and the epimerization entry was “rapid epimerization”. Moreover, in series [3], the “Ratio KiCalpain-1/KiCalpain-2” value stood at 1.5, it took 196 nM to reach half-maximal inhibition (IC50) and the Ki was 124 nM.

The term half-life denotes how long it takes for the measured level to halve. Low readings indicate rapid decline, high ones slow decline. For the molecule `CCC(NC(=O)[C@H](CC(C)C)NC(=O)CCc1ccccc1)C(=O)C(=O)NCc1cc(F)cc(OC)c1` (stereo partly drawn) [NA115, N-(3-fluoro-5-methoxybenzyl)-3-((S)-4-methyl-2-(3-phenylpropanamido)-pentanamido)-2-oxopentanamide], in series [4], the “selectivity for calpain-2, ratio of IC50 calpain-1/IC50 calpain-2” value worked out at 31.7. For the same molecule, in series [5], the half-life at 200 μM fell in the range of 9 to 15 h. Besides, in series [6], the “protection of retinal ganglion cells (anti-beta-III tubulin positive cells) from increased IOP-induced cell death” value is listed as “protects against retinal ganglion from increased ocular pressure-induced cell death”. In series [1], the IC50 was determined as 750 nM and the Ki worked out at 470 nM. In series [3], the “Ratio KiCalpain-1/KiCalpain-2” value is recorded as 4.5, the IC50 turned out to be 170 nM and affinity was put at a Ki of 103 nM. Moreover, the “inhibition of calpain-2 activation (SBDP staining) in the retina following increased IOP” value in series [7] (intraocular injection 40 μM, 100 μM, 200 μM, 2 h after IOP elevation, sacrificed 4 h later) is “dose-dependently inhibiting calpain-2 activation in the retina following increased IOP”.

On to `CC[C@@H](NC(=O)[C@H](CC(C)C)NC(=O)CCc1ccccc1)C(=O)C(=O)NCc1cc(F)cc(OC)c1` [NA115B], for which, in series [1], the IC50 is greater than 10000 nM and the Ki is greater than 10000 nM. Besides, in series [2], the “change of inhibitory effect in the calpain-2 assay after incubation” value was “increased inhibitory effect” and the epimerization entry is recorded as “rapid epimerization”. In series [3], the IC50 is greater than 10000 nM and the Ki is greater than 10000 nM.

For the molecule `CCC(NC(=O)[C@H](CC(C)C)NC(=O)CCc1ccccc1)C(=O)C(=O)NCc1cccc(OC)c1` (stereo partly drawn) [NA117, N-(3-methoxybenzyl)-3-((S)-4-methyl-2-(3-phenylpropanamido)pentanamido)-2-oxopentanamide], in series [4], the “selectivity for calpain-2, ratio of IC50 calpain-1/IC50 calpain-2” value is reported as 24.1. Further, in series [7] (intraocular injection 200 μM), the “inhibition of calpain activation (SBDP staining) following increased IOP” value is given as “also inhibits calpain activation following increased IOP”.
